Values of other authors, collected in paper PMC6114101 (International Journal for Parasitology: Drugs and Drug …, 2018).

Experiments:
N. caninum = settings: ref Ojo et al., 2014; Winzer et al., 2015; Müller et al., 2017a
[1] = tested on: human ether-a-go-go-related gene (hERG) ion channel; settings: ref Vidadala et al., 2016
[2] = ref Ojo et al., 2013

With `CCOc1ccc2cc(-c3nn(CC4CCN(C)CC4)c4ncnc(N)c34)ccc2c1` [BKI-1294] as the compound, how does the “activity against N. caninum in vitro” value (N. caninum) read?
Its value is “effective”.

And the hERG inhibition [1]?
Its hERG inhibition is “potent”.

What about the excreted in urine [2] of the same compound?
Its excreted in urine is 1%.

Which “activity against N. caninum in vitro” value (N. caninum) does the source give for `CCOc1ccc2cc(-c3nn(C(C)(C)C)c(N)c3C(N)=O)cnc2c1` [BKI-1517] here?
Its value is “effective”.
